The results in this text go back to PubChem BioAssay (NCI).

Test systems include CAKI-1 renal; RPMI-8226 leukemia; SF-295 CNS; OVCAR-3 ovarian; SNB-75 CNS; M14 melanoma; SNB-19 CNS; SK-MEL-2 melanoma; SF-539 CNS; SK-OV-3 ovarian.
What all share (assay): growth of human tumour cells (NCI), 48 h

Where “and” joins values, the source holds several entries; their conditions need not be identical. Identical values can stand only once.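 Exposure lasted 48 hours, with cells grown in 96-well plates and compounds tested at five concentrations. GI50: concentration for 50% inhibition of growth. At the TGI there is no net growth.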

Regarding `Cn1c(-c2ccccc2)c(/C=C/C2=[N+](C)c3ccccc3C2(C)C)c2ccccc21`, the GI50 is 1.81 µM in the test with CAKI-1 renal; 0.167 µM with RPMI-8226 leukemia; 0.775 µM in the test on SF-295 CNS; 0.664 µM in the test on OVCAR-3 ovarian; 1.63 µM with SNB-75 CNS; 0.963 µM with M14 melanoma. Also, the GI50 in the test with SNB-19 CNS is 0.571 µM; with SK-MEL-2 melanoma, 1.13 µM; with SF-539 CNS it was 2.59 µM; with SK-OV-3 ovarian, 2.38 µM. Besides, the TGI with CAKI-1 renal is 5.08 µM; in the test with RPMI-8226 leukemia, 0.911 µM; in the test with SF-295 CNS, 3.73 µM; with OVCAR-3 ovarian it was 6.37 µM; in the test on SNB-75 CNS it was 10.7 µM; with M14 melanoma, 3.4 µM. Further, the TGI came to 15.5 µM with SNB-19 CNS, 4.19 µM in the test with SK-MEL-2 melanoma, 14.2 µM with SF-539 CNS and 8.03 µM in the test on SK-OV-3 ovarian.

With `CCCCCCCC(=O)SCC/C=C/[C@@H]1CC(=O)NCc2nc(cs2)C2=N[C@@](C)(CS2)C(=O)N[C@@H](C(C)C)C(=O)N1`, the GI50 in the test on CAKI-1 renal is 2.75 µM; in the test on RPMI-8226 leukemia, 0.0283 µM; in the test with SF-295 CNS it was 0.0392 µM; in the test on OVCAR-3 ovarian it was 0.015 µM; with SNB-75 CNS, 0.0312 µM; with M14 melanoma, 0.0323 µM. Besides, the GI50 with SNB-19 CNS is 0.0419 µM; in the test with SK-MEL-2 melanoma, 0.0304 µM; with SF-539 CNS, 0.0381 µM; with SK-OV-3 ovarian, 0.0149 µM. The TGI in the test with CAKI-1 renal was 17.6 µM; in the test on RPMI-8226 leukemia, over 100 µM; with SF-295 CNS, 0.402 µM; in the test with OVCAR-3 ovarian it was 0.806 µM; in the test on SNB-75 CNS it was over 69 µM; in the test with M14 melanoma, over 100 µM. Also, the TGI with SNB-19 CNS was over 41.1 µM; in the test on SK-MEL-2 melanoma it was 0.597 µM; with SF-539 CNS it was over 57.8 µM; in the test on SK-OV-3 ovarian it was 0.14 µM.

As for `COc1ccc(NC(=O)c2sc3nc(C)c(C(=O)/C=C/c4cccc(OC)c4)cc3c2N)cc1`, the GI50 in the test with CAKI-1 renal is 1.96 µM; in the test with RPMI-8226 leukemia, 0.989 µM; in the test with SF-295 CNS, 3.28 µM; in the test on OVCAR-3 ovarian, 0.939 µM; in the test on SNB-75 CNS it was 1.45 µM; with M14 melanoma, 1.78 µM. The GI50 is 1.72 µM in the test with SNB-19 CNS, 1.54 µM in the test with SK-MEL-2 melanoma, 1.31 µM in the test on SF-539 CNS and 6.71 µM with SK-OV-3 ovarian. Besides, the TGI in the test on CAKI-1 renal is 6.99 µM; in the test on RPMI-8226 leukemia, 3.08 µM; with SF-295 CNS it was over 50 µM; in the test on OVCAR-3 ovarian, 2.68 µM; in the test with SNB-75 CNS, 4.87 µM; in the test on M14 melanoma it was 18.7 µM. Further, the TGI stood at 6.73 µM in the test with SNB-19 CNS, 18 µM in the test on SK-MEL-2 melanoma, 3.49 µM with SF-539 CNS and 46 µM with SK-OV-3 ovarian.

Take `Cc1ccc2c(c1)C(=O)c1c-2c(OCCCN(C)C)nc2ccccc12`: the GI50 in the test with CAKI-1 renal was 4.1 µM; in the test with RPMI-8226 leukemia, 2.71 µM; with SF-295 CNS, 2.87 µM; with OVCAR-3 ovarian, 5.72 µM; with SNB-75 CNS, 2.22 µM; in the test on M14 melanoma, 1.62 µM. For the same molecule, the GI50 in the test on SNB-19 CNS is 2.81 µM; in the test with SK-MEL-2 melanoma, 11.7 µM; in the test on SF-539 CNS it was 1.53 µM; in the test on SK-OV-3 ovarian, 4.47 µM. In addition, the TGI in the test with CAKI-1 renal worked out at 18.2 µM; in the test on RPMI-8226 leukemia, 7.93 µM; in the test with SF-295 CNS it was 14.1 µM; with OVCAR-3 ovarian, 19.8 µM; in the test with SNB-75 CNS it was 15.5 µM; in the test with M14 melanoma it was 3.23 µM. In addition, the TGI in the test with SNB-19 CNS came out at 15.1 µM; in the test on SK-MEL-2 melanoma, 27.4 µM; in the test on SF-539 CNS, 2.99 µM; with SK-OV-3 ovarian it was 17.4 µM.

On to `Cc1c(N)nc(C(CC(N)=O)NCC(N)C(N)=O)nc1C(=O)NC(C(=O)NC(C)C(O)C(C)C(=O)NC(C(=O)NCCc1nc(-c2nc(C(=O)NCCCNC(C)c3ccccc3)cs2)cs1)C(C)O)C(OC1OC(CO)C(O)C(O)C1OC1OC(CO)C(O)C(OC(N)=O)C1O)c1cnc[nH]1` (stereo not drawn), for which the GI50 in the test with CAKI-1 renal is 2 µM; with RPMI-8226 leukemia, 50.4 µM; in the test with SF-295 CNS, 0.115 µM; in the test with OVCAR-3 ovarian, 79.2 µM; in the test with SNB-75 CNS, 1.5 µM; in the test with M14 melanoma it was 5.13 µM. Moreover, the values for the GI50 in the test with SNB-19 CNS, in the test with SK-MEL-2 melanoma and with SF-539 CNS were 14.5 µM, 66.5 µM and 0.0376 µM, respectively. The TGI in the test with RPMI-8226 leukemia was 20.3 µM and > 100 µM; in the test on SF-295 CNS, 5.22 µM and 3.46 µM; in the test on OVCAR-3 ovarian it was 38.3 µM and > 100 µM; in the test on SNB-75 CNS it was 5.03 µM and 8.77 µM; in the test with M14 melanoma, 29.6 µM and > 100 µM; in the test with SNB-19 CNS it was 39.7 µM and > 100 µM. The TGI with SK-MEL-2 melanoma was 30.6 µM and > 100 µM; with SF-539 CNS, 0.476 µM and 0.681 µM; in the test with SK-OV-3 ovarian it was 45.6 µM.

Take `Nc1nc2cc(CC[C@H]3C[C@@H](n4ccc5c(N)ncnc54)[C@H](O)[C@@H]3O)ccc2cc1Br`: the GI50 is 4.38 µM with CAKI-1 renal; 4.92 µM in the test on RPMI-8226 leukemia; 3.25 µM in the test on SF-295 CNS; 10 µM in the test with OVCAR-3 ovarian; 4 µM in the test on SNB-75 CNS; 11.4 µM in the test with M14 melanoma. Besides, the GI50 in the test with SNB-19 CNS is 7.09 µM; with SK-MEL-2 melanoma, 10.9 µM; in the test with SF-539 CNS, 13.2 µM; with SK-OV-3 ovarian it was 13.4 µM. In addition, the TGI with CAKI-1 renal was determined as 21.9 µM; in the test on RPMI-8226 leukemia it was 57.2 µM; in the test with SF-295 CNS, 19 µM; in the test with OVCAR-3 ovarian, 26.1 µM; with SNB-75 CNS it was 19.1 µM; in the test on M14 melanoma, 25.6 µM. The TGI was determined as 23.5 µM with SNB-19 CNS, 25.1 µM with SK-MEL-2 melanoma, 27.6 µM in the test with SF-539 CNS and 39.2 µM in the test with SK-OV-3 ovarian.

Turning to `COC(=O)c1c2c(c(C)[n+]([O-])c1C)C(=O)C=C(NCc1cccc(Cl)c1)C2=O`, the GI50 was 0.204 µM with CAKI-1 renal; 0.86 µM with RPMI-8226 leukemia; 0.422 µM with SF-295 CNS; 0.221 µM in the test with OVCAR-3 ovarian; 1.64 µM in the test with SNB-75 CNS; 0.28 µM in the test with M14 melanoma. The GI50 is 1.01 µM in the test with SNB-19 CNS, 1.04 µM in the test with SK-MEL-2 melanoma, 0.525 µM with SF-539 CNS and 1.92 µM with SK-OV-3 ovarian. Also, the TGI in the test with CAKI-1 renal is 1.95 µM; in the test on RPMI-8226 leukemia, 4.28 µM; with SF-295 CNS, 1.66 µM; in the test with OVCAR-3 ovarian it was 0.665 µM; with SNB-75 CNS, 3.01 µM; in the test with M14 melanoma, 1.56 µM. Further, the TGI in the test with SNB-19 CNS was 2.18 µM; in the test with SK-MEL-2 melanoma it was 2.77 µM; in the test on SF-539 CNS, 1.49 µM; in the test on SK-OV-3 ovarian it was 5.14 µM.

`CCOC(=O)C(Cc1ccccc1)NC(=O)c1[nH]cnc1/N=N/N(C)C` (stereo not drawn): the TGI in the test with CAKI-1 renal, in the test with RPMI-8226 leukemia, in the test with SF-295 CNS, in the test on OVCAR-3 ovarian, in the test on SNB-75 CNS and in the test on M14 melanoma was over 100 µM throughout. For the same molecule, the TGI in the test on SNB-19 CNS, with SK-MEL-2 melanoma, in the test with SF-539 CNS and in the test with SK-OV-3 ovarian was over 100 µM throughout.
